Source: PubChem BioAssay (NCI)
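Where inhibition never reached the appropriate level, the endpoint shown equals the highest concentration tested. Otherwise, values were interpolated linearly from a five-concentration, 48-hour dose response in 96-well plates. GI50 marks 50% less growth. TGI: concentration producing complete growth inhibition.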

Assays:
Test in all cases: DTP human tumour cell line panel, 48 h
786-0 renal = system: 786-0 renal
A498 renal = system: A498 renal
A549 NSCLC = system: A549 NSCLC
ACHN renal = system: ACHN renal
BT-549 breast = system: BT-549 breast
CAKI-1 renal = system: CAKI-1 renal
CCRF-CEM leukemia = system: CCRF-CEM leukemia
COLO 205 colon = system: COLO 205 colon
DU-145 prostate = system: DU-145 prostate
EKVX NSCLC = system: EKVX NSCLC
HCC-2998 colon = system: HCC-2998 colon
HCT-116 colon = system: HCT-116 colon
HCT-15 colon = system: HCT-15 colon
HL-60(TB) leukemia = system: HL-60(TB) leukemia
HOP-62 NSCLC = system: HOP-62 NSCLC
HOP-92 NSCLC = system: HOP-92 NSCLC
HS 578T breast = system: HS 578T breast
HT29 colon = system: HT29 colon
IGROV1 ovarian = system: IGROV1 ovarian
KM12 colon = system: KM12 colon
LOX IMVI melanoma = system: LOX IMVI melanoma
M14 melanoma = system: M14 melanoma
MALME-3M melanoma = system: MALME-3M melanoma
MCF7 breast = system: MCF7 breast
MDA-MB-231 breast = system: MDA-MB-231 breast
MDA-MB-435 = system: MDA-MB-435
MOLT-4 leukemia = system: MOLT-4 leukemia
NCI-H226 lung = system: NCI-H226 lung
NCI-H23 lung = system: NCI-H23 lung
NCI-H460 lung = system: NCI-H460 lung
NCI-H522 lung = system: NCI-H522 lung
NCI/ADR-RES ovarian = system: NCI/ADR-RES ovarian
OVCAR-3 ovarian = system: OVCAR-3 ovarian
OVCAR-4 ovarian = system: OVCAR-4 ovarian
OVCAR-5 ovarian = system: OVCAR-5 ovarian
OVCAR-8 ovarian = system: OVCAR-8 ovarian
PC-3 prostate = system: PC-3 prostate
RPMI-8226 leukemia = system: RPMI-8226 leukemia
RXF 393 renal = system: RXF 393 renal
SF-268 CNS = system: SF-268 CNS
SF-295 CNS = system: SF-295 CNS
SF-539 CNS = system: SF-539 CNS
SK-MEL-2 melanoma = system: SK-MEL-2 melanoma
SK-MEL-28 melanoma = system: SK-MEL-28 melanoma
SK-MEL-5 melanoma = system: SK-MEL-5 melanoma
SK-OV-3 ovarian = system: SK-OV-3 ovarian
SN12C renal = system: SN12C renal
SNB-19 CNS = system: SNB-19 CNS
SNB-75 CNS = system: SNB-75 CNS
SR leukemia = system: SR leukemia
SW-620 colon = system: SW-620 colon
T-47D breast = system: T-47D breast
TK-10 renal = system: TK-10 renal
U251 CNS = system: U251 CNS
UACC-257 melanoma = system: UACC-257 melanoma
UACC-62 melanoma = system: UACC-62 melanoma
UO-31 renal = system: UO-31 renal

C[C@]12CC[C@@H]3c4ccc(O)cc4C[C@@H](CCCCCCCCCS(=O)CCCC(F)(F)C(F)(F)F)[C@H]3[C@@H]1CC[C@@H]2O (some centres not stated) was tested, and the GI50 (786-0 renal) was greater than 100 µM, the TGI (786-0 renal) was greater than 100 µM and the GI50 (A498 renal) was greater than 100 µM. It also gave a TGI (A498 renal) greater than 100 µM, a GI50 (A549 NSCLC) greater than 69.9 µM and a TGI (A549 NSCLC) greater than 100 µM. The GI50 (ACHN renal) was greater than 100 µM, the TGI (ACHN renal) was greater than 100 µM and the GI50 (BT-549 breast) was greater than 49.9 µM. It also gave a TGI (BT-549 breast) greater than 100 µM, a GI50 (CAKI-1 renal) greater than 100 µM and a TGI (CAKI-1 renal) greater than 100 µM. For the same compound, the GI50 (CCRF-CEM leukemia) was greater than 100 µM, the TGI (CCRF-CEM leukemia) was greater than 100 µM and the GI50 (COLO 205 colon) was greater than 100 µM. The TGI (COLO 205 colon) was greater than 100 µM, the GI50 (DU-145 prostate) was greater than 100 µM and the TGI (DU-145 prostate) was greater than 100 µM. For the same compound, the GI50 (EKVX NSCLC) was greater than 100 µM, the TGI (EKVX NSCLC) was greater than 100 µM and the GI50 (HCC-2998 colon) was greater than 100 µM. It also gave a TGI (HCC-2998 colon) greater than 100 µM, a TGI (HCT-116 colon) greater than 100 µM and a GI50 (HCT-15 colon) greater than 100 µM. For the same compound, the TGI (HCT-15 colon) was greater than 100 µM, the GI50 (HL-60(TB) leukemia) was 6.53 µM and the TGI (HL-60(TB) leukemia) was greater than 100 µM. The GI50 (HOP-62 NSCLC) was greater than 67.4 µM, the TGI (HOP-62 NSCLC) was greater than 100 µM and the GI50 (HOP-92 NSCLC) was greater than 100 µM. The TGI (HOP-92 NSCLC) was greater than 100 µM, the GI50 (HS 578T breast) was greater than 100 µM and the TGI (HS 578T breast) was greater than 100 µM. It also gave a GI50 (HT29 colon) greater than 100 µM, a TGI (HT29 colon) greater than 100 µM and a GI50 (IGROV1 ovarian) greater than 100 µM. For the same compound, the TGI (IGROV1 ovarian) was greater than 100 µM, the GI50 (KM12 colon) was greater than 100 µM and the TGI (KM12 colon) was greater than 100 µM. For the same compound, the GI50 (LOX IMVI melanoma) was greater than 100 µM, the TGI (LOX IMVI melanoma) was greater than 100 µM and the GI50 (M14 melanoma) was greater than 100 µM. It also gave a TGI (M14 melanoma) greater than 100 µM, a GI50 (MALME-3M melanoma) greater than 100 µM and a TGI (MALME-3M melanoma) greater than 100 µM. It also gave a TGI (MCF7 breast) greater than 100 µM, a GI50 (MDA-MB-231 breast) greater than 100 µM and a TGI (MDA-MB-231 breast) greater than 100 µM. It also gave a GI50 (MDA-MB-435) greater than 100 µM, a TGI (MDA-MB-435) greater than 100 µM and a GI50 (MOLT-4 leukemia) greater than 100 µM. For the same compound, the TGI (MOLT-4 leukemia) was greater than 100 µM, the GI50 (NCI-H226 lung) was greater than 100 µM and the TGI (NCI-H226 lung) was greater than 100 µM. The GI50 (NCI-H23 lung) was greater than 100 µM, the TGI (NCI-H23 lung) was greater than 100 µM and the GI50 (NCI-H460 lung) was greater than 100 µM. It also gave a TGI (NCI-H460 lung) greater than 100 µM, a GI50 (NCI-H522 lung) greater than 26.2 µM and a TGI (NCI-H522 lung) greater than 100 µM. The GI50 (NCI/ADR-RES ovarian) was greater than 100 µM, the TGI (NCI/ADR-RES ovarian) was greater than 100 µM and the GI50 (OVCAR-3 ovarian) was greater than 100 µM. It also gave a TGI (OVCAR-3 ovarian) greater than 100 µM, a GI50 (OVCAR-4 ovarian) greater than 100 µM and a TGI (OVCAR-4 ovarian) greater than 100 µM. It also gave a GI50 (OVCAR-5 ovarian) greater than 100 µM, a TGI (OVCAR-5 ovarian) greater than 100 µM and a GI50 (OVCAR-8 ovarian) greater than 100 µM. It also gave a TGI (OVCAR-8 ovarian) greater than 100 µM, a GI50 (PC-3 prostate) greater than 100 µM and a TGI (PC-3 prostate) greater than 100 µM. For the same compound, the GI50 (RPMI-8226 leukemia) was 2.35 µM, the TGI (RPMI-8226 leukemia) was greater than 100 µM and the GI50 (RXF 393 renal) was greater than 78.1 µM. The TGI (RXF 393 renal) was greater than 100 µM, the GI50 (SF-268 CNS) was greater than 100 µM and the TGI (SF-268 CNS) was greater than 100 µM. It also gave a GI50 (SF-295 CNS) greater than 100 µM, a TGI (SF-295 CNS) greater than 100 µM and a GI50 (SF-539 CNS) greater than 100 µM. It also gave a TGI (SF-539 CNS) greater than 100 µM, a GI50 (SK-MEL-2 melanoma) greater than 100 µM and a TGI (SK-MEL-2 melanoma) greater than 100 µM. It also gave a GI50 (SK-MEL-28 melanoma) greater than 100 µM, a TGI (SK-MEL-28 melanoma) greater than 100 µM and a GI50 (SK-MEL-5 melanoma) greater than 100 µM. The TGI (SK-MEL-5 melanoma) was greater than 100 µM, the GI50 (SK-OV-3 ovarian) was greater than 100 µM and the TGI (SK-OV-3 ovarian) was greater than 100 µM. The GI50 (SN12C renal) was greater than 100 µM, the TGI (SN12C renal) was greater than 100 µM and the GI50 (SNB-19 CNS) was greater than 100 µM. The TGI (SNB-19 CNS) was greater than 100 µM, the GI50 (SNB-75 CNS) was greater than 100 µM and the TGI (SNB-75 CNS) was greater than 100 µM. For the same compound, the GI50 (SR leukemia) was greater than 100 µM, the TGI (SR leukemia) was greater than 100 µM and the GI50 (SW-620 colon) was greater than 100 µM. It also gave a TGI (SW-620 colon) greater than 100 µM, a GI50 (T-47D breast) of 0.71 µM and a TGI (T-47D breast) greater than 100 µM. It also gave a GI50 (TK-10 renal) greater than 51.8 µM, a TGI (TK-10 renal) greater than 100 µM and a GI50 (U251 CNS) greater than 100 µM. It also gave a TGI (U251 CNS) greater than 100 µM, a GI50 (UACC-257 melanoma) greater than 100 µM and a TGI (UACC-257 melanoma) greater than 100 µM. For the same compound, the GI50 (UACC-62 melanoma) was greater than 100 µM, the TGI (UACC-62 melanoma) was greater than 100 µM and the GI50 (UO-31 renal) was greater than 100 µM. The TGI (UO-31 renal) was greater than 100 µM.
